Legend:
rat cathepsin K = molecular target: T1, rat cathepsin K (Rattus norvegicus, UniProt O35186); test: Recombinant enzyme assay, rat cathepsin K; assay type: biochemical; conditions: footnote a: IC50
T1 construct: made in house; host or cells: E. coli
From the text: (§1) Recombinant cathepsin K enzymes from all species were expressed in E. coli, purified and activated. Human cathepsin F and cathepsin S were expressed in Baculovirus, purified and activated. Purified human cathepsins B and H (Athens Research Technology), cathepsin L (Calbiochem), and cathepsin V (R & D Systems) were purchased.
(§2) H-D-Ala_Leu-Lys-AMC was used as the substrate in assays of cathepsin K from non-rodent species (human, dog, rabbit and guinea pig), and Z-Leu-Arg-AMC was used as the substrate in assays of cathepsin K from rodent species (mouse and rat). […]
(§3) Assays were carried out in white polystyrene 96-well plates in a final volume of 100 µL. […] Plates were read in a Fluoroskan Ascent (Thermo Labsystems, Helsinki, Finland) in kinetic mode, with excitation and emission filters of 390 and 460 nm, respectively. Rates were determined by linear regression of the fluorescence/time data in Excel. Rates were fitted by non-linear regression to either the competitive inhibition equation, with the substrate concentration fixed at the value in the assay and the KM fixed to the value previously determined, or the IC50 equation using GraphPad Prism (GraphPad, version 6, San Diego, USA) to obtain Ki or IC50 values, respectively.

[1] = Human safety and tolerability, single ascending dose study; assay type: in vivo, human healthy subjects
From the text: (§4) Twenty-seven healthy male and female subjects (18 male and 9 female) of any ethnic origin (24 White, 1 Asian, 1 Black, 1 Black/Caribbean White), aged between 19 and 64 years, and with a body mass index (BMI) between 18.0 and 32.0 kg/m^2, were selected for this study. Inclusion criteria for enrollment followed the standard practice for first-in-man studies.
(§5) This was a randomized, double-blind, placebo-controlled, sequential, single-ascending dose study conducted at a single site with the objective of evaluating the safety, tolerability, pharmacokinetics (PK) and pharmacodynamics of MIV-711. Subjects were randomized into 3 groups using a computer-generated pseudo-random permutation procedure. Each group consisted of 9 subjects with at least 3 subjects of each gender per group and subjects participated in 1–2 treatment periods. There was a minimum of 10 days between dose escalations and a minimum of 20 days between dosing occasions for individual subjects. For each subsequent dosing occasion, the decision to escalate the dose to the next level was taken after a thorough review of the safety, tolerability and PK data. In each treatment period, 7 subjects received MIV-711 and 2 received placebo (comprising of 1 subject of each gender). Dosing occurred on the morning of Day 1 following an overnight fast and subjects were kept in the fasted state until approximately 4.5 h after dosing. MIV-711 was given as a combination of 10 or 40 mg hard gelatin capsules, while placebo was given in similar capsules of identical appearance.
Standard safety assessments were performed throughout the study and included physical examination, vital signs, 12-lead electrocardiogram (ECG), continuous ECG Holter monitoring, hematology, biochemistry, urinalysis and adverse event monitoring.
In the nonclinical studies, two-way ANOVA was used to assess the effects of MIV-711 on plasma CTX-I. Pearson’s correlation was used when comparing plasma exposure of MIV-711 with inhibitory effects on CTX-I. Student’s unpaired t test was used when assessing the effect of MIV-711 on urine biomarkers. In the clinical study, PK parameters were summarized by dose level using descriptive statistics. The dose proportionality for AUC and Cmax was assessed by using a power model with determination of the linear regression slope with a 95% confidence interval. Change in CTX-I from baseline at 24 h after dose was calculated by dose level and summarized using descriptive statistics. In addition, the 95% confidence interval for the difference between each MIV-711 group and the placebo group for these variables was calculated by dose level. Pearson’s correlation was used when comparing plasma exposure of MIV-711 with inhibitory effects on CTX-I. A time-matched and placebo-corrected approach was used to evaluate the effects of MIV-711 on the QTcF interval from the Holter ECG recordings. The change-from-baseline QTcF at post-dose time points was analyzed using an ANCOVA model including the treatment, time (categorical), and treatment-by-time interaction as fixed effects, baseline QTcF as a covariate, and subject as random effect. A p value < 0.05 was considered statistically significant. Data are expressed as mean ± SEM.

mouse cathepsin K = molecular target: T2, mouse cathepsin K (Mus musculus, UniProt P55097); test: Recombinant enzyme assay, mouse cathepsin K; assay type: biochemical; conditions: footnote a: IC50
T2 construct: made in house; host or cells: E. coli
T2 sequence (P55097 115-329): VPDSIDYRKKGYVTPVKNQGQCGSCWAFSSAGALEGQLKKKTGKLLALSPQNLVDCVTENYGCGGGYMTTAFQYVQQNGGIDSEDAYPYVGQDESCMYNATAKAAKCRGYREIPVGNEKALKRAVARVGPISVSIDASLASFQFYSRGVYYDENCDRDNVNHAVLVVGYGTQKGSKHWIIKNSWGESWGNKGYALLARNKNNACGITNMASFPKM
From the text: as §1, §2, §3

pKa = assay type: physicochemical
serum CTX-I = test: Human serum CTX-I, single ascending dose study; assay type: in vivo, human healthy subjects
From the text: as §4, §5
Blood samples were collected at pre-dose, 4, 8, 24 and 48 h post-dose and processed into serum for the measurement of CTX-I concentrations.
The quantification of CTX-I in monkey plasma samples and human serum samples was performed using a commercially available kit (Serum CrossLaps ELISA, IDS Nordic, Herlev, Denmark). The levels of CTX-I in monkey urine samples were measured using a commercially available kit (Urine BETA CrossLaps ELISA, IDS Nordic). The quantification of NTX-I in monkey samples was performed using a commercially available kit (Osteomark NTx Urine, Wampole Laboratories, Inc, Princeton, USA). Urinary levels of CTX-II in monkey samples were measured using a commercially available kit (Urine CrossLaps EIA, IDS Nordic). The concentrations of biomarkers in the urine samples were corrected for creatinine concentrations. The creatinine levels in urine were determined at Swedish University of Agricultural Sciences, using the enzymatic assay (cat no. 8L24-01) on the Abbott system Architect c4000.

[2] = single ascending doses 20–600 mg

T1 sequence (O35186 115-329): as the sequence (P55097 115-329) above, with T58S, I131V, A140T, S175N, H177Y, A194V, M209L counted along it

C#C[C@@H]1CN(C(=O)[C@H](CC(C)C)NC(=O)c2ccc(-c3nc(N4CCN(C)CC4)sc3F)cc2)[C@@H]2C(=O)CO[C@H]12 [MIV-711]
IC50 (rat cathepsin K): 240 nM | Adverse events considered possibly related to treatment ([1]; 6/35, all mild): 17% | Subjects reporting adverse events ([1]; 11/35 MIV-711-treated subjects): 31% | Upper confidence interval of the projected QTcF effect at the highest observed plasma levels ([1]; maximum dose of 600 mg): below 10 ms | Safety and tolerability [1, 2]: safe and well-tolerated | Serious adverse events [1, 2]: no serious adverse events | IC50 (mouse cathepsin K): 1000 nM | pKa (pKa): 7.15 | Inhibition of serum CTX-I versus baseline at 24 h (serum CTX-I; 20 mg single dose): 20% | Reduction of CTX-I at 24 h post-dose (serum CTX-I; 100 mg single dose): 54% | Inhibition of serum CTX-I versus baseline at 24 h (serum CTX-I; 600 mg single dose): 79% | Exposure required for 50% reduction of CTX-I at 24 h post dose (serum CTX-I; AUC0–24h): 1.3 µmol/L/h

Source: paper PMC5944028, “Nonclinical and clinical pharmacological characterization of the potent and selective cathepsin K inhibitor MIV-711” (Journal of Translational Medicine, 2018)
